Where two headings read alike, the source gives them in different places.
What was measured:
[1] = XRPD with moisture chamber: relative humidity for onset of conversion of form A to trihydrate form F, method 2; format: physicochemical; settings: increasing RH at ambient conditions
From the text: The moisture chamber allows for controlling the humidity and temperature of the samples during XRPD measurements.
Samples from different batches of SNAC polymorphic form A were subjected to increasing levels of relative humidity at ambient conditions inside a humidity chamber with the possibility of simultaneous determination of the polymorphic form in accordance with the XRPD method 2. The diffractograms were visually inspected for the appearance of characteristic diffraction peaks for the SNAC polymorphic form F in order to determine at which relative humidity polymorphic conversion of form A to F started.

[2] = Dynamic vapour sorption (DVS) moisture uptake, method 3; format: physicochemical; settings: for Moisture absorption at 65% RH, Before: before heat treatment
Procedure: Moisture sorption/desorption data were measured by a Dynamic Vapour Sorption Advantage 1 from Surface Measurement Systems. Prior to analysis the samples were dried for up to about 48 h in desiccators containing phosphorus pentoxide. Approximately 20 mg of sample was placed into a balance pan and loaded into the instrument and the sample was then further dried for a minimum of 500 min in the instrument at 0% RH using a nitrogen purge. The resulting sample weight after the further drying was assigned as the 0% start weight and all weight gains and losses was calculated relative to this start weight. Sorption and desorption isotherms were collected over a range from 0 to 90% relative humidity (RH) using a nitrogen purge at 25° C. The threshold for equilibrium used for analysis was 0.002 to 0.0005 dm/dt.
Furthermore, samples were taken after 24 h of exposure at the indicated elevated temperatures and were subjected to dynamic vapor sorption measurements in accordance with method 3 to determine the hygroscopicity. The moisture uptake was measured at 65% RH. The hygroscopicity is decreased as the moisture absorbed at 65% RH decreases when exposing SNAC polymorphic form A to elevated temperatures for 24 h.

[3] = XRPD FWHM of the peak at 8.7±0.2° 2θ (degree of crystal imperfections), method 1; format: physicochemical; settings: for FWHM (automatic mode), XRPD peak around 8.7 ± 0.2° 2θ, Before: before heat treatment
Procedure: (§1) XRPD was performed using a Malvern Panalytical Empyrean diffractometer at ambient conditions. The diffraction pattern was measured at room temperature using an Empyrean Cu LFF HR (45 kV/40 mA) source and PIXcel3D-Medipix3 1×1 detector. The measurement was performed in the range of 2-40° 20 using a scan speed of 0.067335° 2θ/s and a step size of 0.0262606° 2θ. The samples were measured in transmission mode and with a spinner revolution time of 1 second. Approximately 200 mg of sample were placed between two sheets of Kapton Polyimide Thin-film. The measurements were performed using a Soller slit of 0.04 radians and a fixed divergence slit of 0.5° on the incident beam, and a 3 mm Anti scatter slit and a Soller slit of 0.04 radians in the diffracted beam.
The degree of crystal imperfections was assessed by use of the FWHM as more crystal imperfections might cause peak broadening and lower peak height, which leads to higher FWHM values due to fewer lattice planes with identical orientation contributing to the diffraction peak. Oppositely, in the absence of crystal imperfections, lattice planes with identical orientation increase and result in narrower and higher diffraction peaks leading to smaller FWHM values. The FWHM was calculated using the characteristic peak at 8.7±0.2° 2θ by finding the apex of the peak and measuring the height of the peak applying the x-axis as the baseline (automatic mode) (see FIG. 11) or applying a baseline spanning the two surrounding troughs (manual mode) (see FIG. 12). This value is then divided in half to find the half height. Hereafter the width of the peak at that half height is measured and reported in ° 2θ. Alternatively, the peak at 6.0±0.2° 2θ may also be used to calculate the FWHM.
(§2) Samples from a batch of SNAC polymorphic form A (Batch 5) with a FWHM of 0.97° 2θ (automatic mode) and a moisture uptake of 1.98% at 65% RH from the beginning were heated to 90, 100, 110, 120, 130, and 140° C., respectively, in a tray oven. The samples were exposed to their respective temperatures for up to 72 h. The sample size was small enough to ensure that the samples equilibrated completely, within a few of minutes, to the oven temperature. Samples were taken during the 72 h of elevated temperature exposure and subjected to XRPD measurements in accordance with method 1 to determine the polymorphic form and impact on crystal imperfections using FWHM with the x-axis as the baseline (automatic mode).
(§3) Samples from different batches of SNAC polymorphic form A were subjected to a heat treatment in a tray oven and the sample size was small enough to ensure that the samples equilibrated completely and within a couple of minutes to the oven temperature. Samples were taken from the batches before the heat treatment and after the heat treatment and subjected to XRPD measurements in accordance with method 1 to determine the polymorphic form and impact on crystal imperfections using FWHM with the x-axis as the baseline (auto mode). Furthermore, samples were also subjected to DVS measurements in accordance with method 3 to determine the impact of the heat treatment on the hygroscopicity.

[4] = Dynamic vapour sorption (DVS) moisture uptake, method 3; format: physicochemical; settings: not ground
[5] = Polymorphic form determined by XRPD, method 1; format: physicochemical; settings: after heat treatment 150° C. for 1 h
Procedure: as §1
The polymorphic form of the sample was determined by comparison of the diffractogram obtained for the sample with reference diffractograms for the SNAC polymorphs and solvates.
as §2, §3

[6] = heat treatment: None; derived from example 1 and figures of WO 2005/107462; cited from earlier work
[7] = heat treatment: None; derived from example 1 and figures of WO 2005/107462; cited from earlier work; remark: listed apart in the source
[8] = ground in a mortar with pestle for about 10 min
[9] = after heat treatment 150° C. for 1 h
[10] = heat treatment 115° C. for 24 h
[11] = after heat treatment 115° C. for 24 h
[12] = after heat treatment 120° C. for 20 h
[13] = after heat treatment 120° C. for 24 h
[14] = made per example 2 of WO 2008/028859, after drying at 90° C. for 18 h

Row | Structure (SMILES) | Onset of trihydrate conversion (form A to form F) ([1]; heat treatment: None) [% RH] | Moisture absorption at 65% RH ([2]; heat treatment: None) [%] | FWHM (manual mode) ([3]; heat treatment: None) [°2θ] | Moisture absorption at 65% RH, Before [2] [%] | FWHM (automatic mode), XRPD peak around 8.7 ± 0.2° 2θ, Before [3] [° 2θ] | other results
1 | O=C([O-])CCCCCCCNC(=O)c1ccccc1O.[Na+] [Batch 3, monosodium N-[8-(2-hydroxybenzoyl)-amino]caprylate] | 75 | 1.95 | 0.66 |  |  | 
2 | O=C([O-])CCCCCCCNC(=O)c1ccccc1O.[Na+] [Batch 6, monosodium N-[8-(2-hydroxybenzoyl)-amino]caprylate] | 75 | 1.81 | 0.65 |  |  | 
3 | O=C([O-])CCCCCCCNC(=O)c1ccccc1O.[Na+] [Batch 10, monosodium N-[8-(2-hydroxybenzoyl)-amino]caprylate] |  |  |  |  |  | Moisture absorption at 60% RH [2, 8]: 2.99%; Moisture absorption at 60% RH [4]: 1.19%; FWHM (auto mode) [3, 8]: 1.00 °2θ; FWHM (auto mode) ([3]; not ground): 0.79 °2θ
4 | O=C([O-])CCCCCCCNC(=O)c1ccccc1O.[Na+] [Batch 2, monosodium N-[8-(2-hydroxybenzoyl)-amino]caprylate] | 70 | 2.90 | 0.84 | 2.90 | 1.21 | Moisture absorption at 65% RH, After [2, 9]: 1.04%; Polymorphic form, After [5]: A & B; FWHM (automatic mode), XRPD peak around 8.7 ± 0.2° 2θ, After [3, 9]: 0.42 ° 2θ
5 | O=C([O-])CCCCCCCNC(=O)c1ccccc1O.[Na+] [Batch 9, monosodium N-[8-(2-hydroxybenzoyl)-amino]caprylate] | 80 | 1.29 | 0.60 |  |  | Onset of trihydrate conversion (form A to form F) [1, 10]: 80 % RH; Moisture absorption at 65% RH [2, 10]: 0.98%; FWHM (manual mode) [3, 10]: 0.52 °2θ
6 | O=C([O-])CCCCCCCNC(=O)c1ccccc1O.[Na+] [Batch 1, monosodium N-[8-(2-hydroxybenzoyl)-amino]caprylate] |  |  |  | 2.66 | 1.08 | Moisture absorption at 65% RH, After [2, 11]: 1.26%; FWHM (automatic mode), XRPD peak around 8.7 ± 0.2° 2θ, After [3, 11]: 0.60 ° 2θ
7 | O=C([O-])CCCCCCCNC(=O)c1ccccc1O.[Na+] [Batch 7, monosodium N-[8-(2-hydroxybenzoyl)-amino]caprylate] | 70 | 2.06 | 0.61 |  |  | 
8 | O=C([O-])CCCCCCCNC(=O)c1ccccc1O.[Na+] [Batch X, monosodium N-[8-(2-hydroxybenzoyl)-amino]caprylate] |  |  |  |  |  | Moisture absorption at 65% RH [6]: 1.50%; FWHM (manual mode) [7]: 0.90 °2θ
9 | O=C([O-])CCCCCCCNC(=O)c1ccccc1O.[Na+] [Batch 8, monosodium N-[8-(2-hydroxybenzoyl)-amino]caprylate] | 70 | 2.51 | 0.82 |  |  | Onset of trihydrate conversion (form A to form F) [1, 10]: 80 % RH; Moisture absorption at 65% RH [2, 10]: 0.99%; FWHM (manual mode) [3, 10]: 0.47 °2θ
10 | O=C([O-])CCCCCCCNC(=O)c1ccccc1O.[Na+] [Batch 4, monosodium N-[8-(2-hydroxybenzoyl)-amino]caprylate] |  |  |  | 0.83 | 0.79 | Moisture absorption at 65% RH, After [2, 12]: 0.84%; FWHM (automatic mode), XRPD peak around 8.7 ± 0.2° 2θ, After [3, 12]: 0.58 ° 2θ
11 | O=C([O-])CCCCCCCNC(=O)c1ccccc1O.[Na+] [Batch 5, monosodium N-[8-(2-hydroxybenzoyl)-amino]caprylate] |  |  |  | 1.98 | 0.97 | Moisture absorption at 65% RH, After [2, 13]: 0.94%; FWHM (automatic mode), XRPD peak around 8.7 ± 0.2° 2θ, After [3, 13]: 0.58 ° 2θ
12 | O=C([O-])CCCCCCCNC(=O)c1ccccc1O.[Na+] [Batch 11, monosodium N-[8-(2-hydroxybenzoyl)-amino]caprylate, reference compound] |  |  |  |  |  | Moisture absorption at 65% RH [2, 14]: 2.62%; FWHM (auto mode) [3, 14]: 1.12 °2θ
